From PMC12078333, “Pharmacokinetic evaluation and bioavailability of KPT-335 (Verdinexor) in cats” (Frontiers in Veterinary Science, 2025)
Several values for one entry are separate records, joined by “and”; a condition that tells them apart may be missing. Equal entries are not always repeated. Where two headings read alike, the source gives them in different places.

Experiment: Pharmacokinetics study of KPT-335 in cats (i.v. injection, p.o. capsules and tablets; UPLC-MS/MS, non-compartmental analysis)
Assay type: in vivo
Conditions: for Plasma concentration: individual cats 1-6; for AUC(0-t) / Cmax: plasma
Description: In this study, a parallel trial design was employed, 42 adult domestic cats (21 males and 21 females), aged 1 to 2 years and weighing 2.5 ± 0.25 kg. Cats were grouped by random number, with half male and female in each group, and all cats were determined to be systemically healthy during an initial screening visit 1 week prior to the experiment. They were acclimatized to the laboratory environment for 7 days before the study commenced. During this period, they were kept in solitary cages with free access to water. Cats in the fasting group were deprived of food for 12 h prior to and 2 h following drug administration, while those in the feeding group were fed twice a day. Food and water sources were consistent throughout the trail. During and at the end of the experiment, we systematically assessed the adverse reactions by recording parameters such as body weight, behavior, and coat gloss in all test cats both before and after the trial. These observations were conducted to evaluate whether any adverse reactions occurred. All procedures were reviewed and approved by the Institutional Animal Care and Use Committee of China Agricultural University (11305-23-E-002).
The UPLC-MS/MS system utilized a UPLC 1290 (Agilent) paired with a Phenomenex Kinetex C18 column (50 mm × 2.1 mm, 2.6 μm) for separation at a flow rate of 0.3 mL/min. The chromatographic mobile phase comprised water (A) and acetonitrile (B), both containing 0.1% formic acid. The gradient elution program was as follows: from 0.5 to 2.5 min, 10 to 95% B; from 2.5 to 4.5 min, 95% B; from 4.5 to 4.6 min, 95 to 10% B; and from 4.6 to 6.0 min, 10% B. The injection volume was 2 μL.
For mass spectrometry, an Agilent 6,475-LC-TQ equipped with an electrospray ion source was used. Multiple Reaction Monitoring (MRM) was selected to quantify KPT-335 in the positive ion mode. The ion transitions monitored were m/z 443.1 → 334.0 and 443.1 → 110.1 for KPT-335, and m/z 444.1 → 334.0 for the internal standard (IS). The cone voltage and collision energy were optimized for KPT-335 and the IS individually, set at 160 V and 25 eV, respectively. The optimized parameters for the instrument included an ion source temperature of 350°C, solvent removal temperature of 320°C, capillary voltage of 3.0 kV, and a solvent gas flow rate of 300 L/h.
The method was developed based on prior research conducted in the laboratory ([16]) and validated in accordance with international guidelines ([17]). The calibration concentration range for KPT-335 spanned from 0.5 to 100 ng/mL, with a lower limit of quantification (LLOQ) set at 0.5 ng/mL. The squared correlation coefficient (R^2) values exceeded 0.999, indicating high linearity.
For sample preparation, 100 μL of plasma was mixed with 10 μL of internal standard (IS) and 900 μL of acetonitrile, followed by vortexing for 2 min. The mixture was then centrifuged at 13,400 × g at 4°C for 10 min. The supernatant was filtered through a 0.22 μm organic membrane, and the resulting sample was analyzed using UPLC-MS/MS.
Cats were divided into seven groups, with six cats in each group. In the intravenous (i.v.) group (Group 1), cats received an injection of KPT-335 at a dosage of 1 mg/kg body weight (BW), administered via a bolus through a venous infusion needle. For the oral (p.o.) administration, cats were given capsules in a fasting state at doses of 0.2 mg/kg BW (Group 2), 1 mg/kg BW (Group 3), and 2 mg/kg BW (Group 4). Additionally, tablets were administered at 1 mg/kg BW (fasting, Group 5), 1 mg/kg BW (Group 6), and 2 mg/kg BW (Group 7) in a feeding state, followed by 3 mL of water delivered with a syringe.
For the p.o. administration, blood samples of 1.5 mL were collected via the brachial cephalic vein prior to administration and at 0.167, 0.333, 0.5, 0.75, 1, 1.5, 2, 4, 6, 8, 12, 24, 32, and 48 h post-administration. […]

[1] = cats, i.v., Injection, 1 mg/kg BW
[2] = cats, p.o., Capsule, Fasting, 0.2 mg/kg BW
[3] = cats, p.o., Capsule, Fasting, 1 mg/kg BW
[4] = cats, p.o., Capsule, Fasting, 2 mg/kg BW
[5] = cats, p.o., Tablet, Fasting, 1 mg/kg BW
[6] = cats, p.o., Tablet, Feeding, 1 mg/kg BW

O=C(/C=C\n1cnc(-c2cc(C(F)(F)F)cc(C(F)(F)F)c2)n1)NNc1ccccn1 [KPT-335]
Plasma concentration (cats, i.v. 1 mg/kg BW, 1 h, 1 mg/kg, in ng/mL): 643.90 and 242.31 and 664.36 and 555.75 and 518.04 and 558.85
Plasma concentration (cats, i.v. 1 mg/kg BW, 2 h, 1 mg/kg, in ng/mL): 490.02 and 194.67 and 604.45 and 427.47 and 433.50 and 495.92
Plasma concentration (cats, i.v. 1 mg/kg BW, 4 h, 1 mg/kg, in ng/mL): 278.69 and 140.14 and 326.77 and 250.68 and 245.55 and 286.46
Plasma concentration (cats, i.v. 1 mg/kg BW, 8 h, 1 mg/kg, in ng/mL): 92.64 and 60.90 and 157.56 and 64.79 and 88.37 and 110.98
Plasma concentration (cats, i.v. 1 mg/kg BW, 12 h, 1 mg/kg, in ng/mL): 91.54 and 31.99 and 27.73 and 24.10 and 36.17 and 25.48
Plasma concentration (cats, i.v. 1 mg/kg BW, 24 h, 1 mg/kg): 2.04 ng/mL and 1.82 ng/mL
Plasma concentration (cats, i.v. 1 mg/kg BW, 24 h, 1 mg/kg, in ng/mL): 11.88 and 15.46 and 18.84 and 11.18
Plasma concentration (cats, i.v. 1 mg/kg BW, 32 h, 1 mg/kg): 2.52 and 2.36 and 9.45 and 1.34 and 8.61 and BLOQ
Plasma concentration (cats, i.v. 1 mg/kg BW, 48 h): BLOQ
AUC_%Extrap_obs [1]: 0.83 ± 0.69%
HL_Lambda_z [1]: 3.93 ± 0.84 h
reduction of absolute bioavailability when dosage is increased to 2 mg/kg BW (cats, p.o.): 15–25%
AUC_%Extrap_obs [2]: 7.53 ± 7.79%
HL_Lambda_z [2]: 7.04 ± 3.26 h
AUC_%Extrap_obs [3]: 0.47 ± 0.13%
HL_Lambda_z [3]: 5.37 ± 1.01 h
AUC_%Extrap_obs [4]: 0.75 ± 0.38%
HL_Lambda_z [4]: 6.78 ± 0.97 h
AUC_%Extrap_obs [5]: 0.82 ± 0.39%
HL_Lambda_z [5]: 5.76 ± 1.16 h
AUC_%Extrap_obs [6]: 0.92 ± 1.43%
HL_Lambda_z [6]: 4.20 ± 1.26 h
AUC_%Extrap_obs (cats, p.o., Tablet, Feeding, 2 mg/kg BW): 0.39 ± 0.24%
HL_Lambda_z (cats, p.o., Tablet, Feeding, 2 mg/kg BW, 2 mg/kg): 3.54 h and 3.54 ± 0.81 h
impact of feeding on the AUC (cats, tablet 1 mg/kg BW fasting vs feeding): minimal to no impact
Plasma concentration (cats, tablet p.o. 1 mg/kg BW after fasting, 48 h, 1 mg/kg): BLOQ
Plasma concentration (cats, tablet p.o. 1 mg/kg BW after feeding, 24 h, 1 mg/kg): BLOQ
Plasma concentration (cats, tablet p.o. 1 mg/kg BW after feeding, 32 h, 1 mg/kg): BLOQ
Plasma concentration (cats, tablet p.o. 1 mg/kg BW after feeding, 48 h, 1 mg/kg): BLOQ
Plasma concentration (cats, tablet p.o. 2 mg/kg BW after feeding, 32 h, 2 mg/kg): BLOQ
Plasma concentration (cats, tablet p.o. 2 mg/kg BW after feeding, 48 h): BLOQ
AUC(0-t) (female, iv, 1 mg/kg, female cats, i.v., Injection, 1 mg/kg BW, read-out: AUClast Value females): 3060 ± 193 ng·h/mL
Cmax (female, iv, 1 mg/kg, female cats, i.v., Injection, 1 mg/kg BW, read-out: Cmax Value females): 886 ± 54 ng/mL
AUC(0-t) (female, po, 0.2 mg/kg, female cats, p.o., Capsule, Fasting, 0.2 mg/kg BW, read-out: AUClast Value females): 244 ± 23.4 ng·h/mL
Cmax (female, po, 0.2 mg/kg, female cats, p.o., Capsule, Fasting, 0.2 mg/kg BW, read-out: Cmax Value females): 31.1 ± 11.2 ng/mL
AUC(0-t) (female, po, 1 mg/kg, female cats, p.o., Capsule, Fasting, 1 mg/kg BW, read-out: AUClast Value females): 1490 ± 292 ng·h/mL
Cmax (female, po, 1 mg/kg, female cats, p.o., Capsule, Fasting, 1 mg/kg BW, read-out: Cmax Value females): 284 ± 95.8 ng/mL
AUC(0-t) (female, po, 1 mg/kg, female cats, p.o., Tablet, Fasting, 1 mg/kg BW, read-out: AUClast Value females): 2480 ± 1160 ng·h/mL
Cmax (female, po, 1 mg/kg, female cats, p.o., Tablet, Fasting, 1 mg/kg BW, read-out: Cmax Value females): 220 ± 48.4 ng/mL
AUC(0-t) (female, po, 1 mg/kg, female cats, p.o., Tablet, Feeding, 1 mg/kg BW, read-out: AUClast Value females): 2660 ± 1870 ng·h/mL
Cmax (female, po, 1 mg/kg, female cats, p.o., Tablet, Feeding, 1 mg/kg BW, read-out: Cmax Value females): 467 ± 139 ng/mL
AUC(0-t) (female, po, 2 mg/kg, female cats, p.o., Capsule, Fasting, 2 mg/kg BW, read-out: AUClast Value females): 1830 ± 39.6 ng·h/mL
Cmax (female, po, 2 mg/kg, female cats, p.o., Capsule, Fasting, 2 mg/kg BW, read-out: Cmax Value females): 233 ± 52.4 ng/mL
AUC(0-t) (female, po, 2 mg/kg, female cats, p.o., Tablet, Feeding, 2 mg/kg BW, read-out: AUClast Value females): 2840 ± 1090 ng·h/mL
Cmax (female, po, 2 mg/kg, female cats, p.o., Tablet, Feeding, 2 mg/kg BW, read-out: Cmax Value females): 538 ± 150 ng/mL
AUC(0-t) (male, iv, 1 mg/kg, male cats, i.v., Injection, 1 mg/kg BW, read-out: AUClast Value males): 3290 ± 1300 ng·h/mL
Cmax (male, iv, 1 mg/kg, male cats, i.v., Injection, 1 mg/kg BW, read-out: Cmax Value males): 816 ± 443 ng/mL
AUC(0-t) (male, po, 0.2 mg/kg, male cats, p.o., Capsule, Fasting, 0.2 mg/kg BW, read-out: AUClast Value males): 312 ± 241 ng·h/mL
Cmax (male, po, 0.2 mg/kg, male cats, p.o., Capsule, Fasting, 0.2 mg/kg BW, read-out: Cmax Value males): 24.1 ± 6.3 ng/mL
AUC(0-t) (male, po, 1 mg/kg, male cats, p.o., Capsule, Fasting, 1 mg/kg BW, read-out: AUClast Value males): 1340 ± 704 ng·h/mL
Cmax (male, po, 1 mg/kg, male cats, p.o., Capsule, Fasting, 1 mg/kg BW, read-out: Cmax Value males): 237 ± 56.7 ng/mL
AUC(0-t) (male, po, 1 mg/kg, male cats, p.o., Tablet, Fasting, 1 mg/kg BW, read-out: AUClast Value males): 2340 ± 453 ng·h/mL
Cmax (male, po, 1 mg/kg, male cats, p.o., Tablet, Fasting, 1 mg/kg BW, read-out: Cmax Value males): 307 ± 183 ng/mL
AUC(0-t) (male, po, 1 mg/kg, male cats, p.o., Tablet, Feeding, 1 mg/kg BW, read-out: AUClast Value males): 1850 ± 11.1 ng·h/mL
Cmax (male, po, 1 mg/kg, male cats, p.o., Tablet, Feeding, 1 mg/kg BW, read-out: Cmax Value males): 261 ± 38.3 ng/mL
AUC(0-t) (male, po, 2 mg/kg, male cats, p.o., Capsule, Fasting, 2 mg/kg BW, read-out: AUClast Value males): 1850 ± 1290 ng·h/mL
Cmax (male, po, 2 mg/kg, male cats, p.o., Capsule, Fasting, 2 mg/kg BW, read-out: Cmax Value males): 328 ± 259 ng/mL
AUC(0-t) (male, po, 2 mg/kg, male cats, p.o., Tablet, Feeding, 2 mg/kg BW, read-out: AUClast Value males): 3160 ± 107 ng·h/mL
Cmax (male, po, 2 mg/kg, male cats, p.o., Tablet, Feeding, 2 mg/kg BW, read-out: Cmax Value males): 580 ± 56 ng/mL
